# Ends that are not written are not given here.
# Tests used:
# [1] = target: T1, HLA-E on the surface of Raji cells (Homo sapiens, UniProt P13747); assay: HLA-E stabilisation assay (flow-cytometry); format: cell-based; conditions: HLA-E*0101/0101 Raji cells transfected with peptide, HLA-E surface expression after 16h by flow-cytometry; three independent replicates; Figure 1E; read-out: HLA-E upregulation (EC50)
# T1 construct: host or cells: Raji cells
# Method: For the HLA-E stabilization experiments, HLA-E*0101/0101-encoding Raji cells (German Collection of Microorganisms and Cell Cultures) were maintained in 90% RPMI 1640 + 10% heat-inactivated FCS (Thermo-Fisher). The cells were individually transfected with indicated concentrations of the LMP-1 peptides (Peptides&Elephants) using the Pierce Protein Transfection Reagent according to the manufacturer’s instructions (Thermo-Fisher). After 16h, the cells were either fixed and analyzed for the HLA-E expression by flow-cytometry as described below, or washed once with Opti-MEM I Reduced Serum Medium (Gibco) and subsequently used in NKG2A^+ NK cell inhibition experiments.
# The following conjugated mouse anti-human mAB were used for flow-cytometry: PE-CD19 (4G7), BV421-CD56 (NCAM 16.2), BV510-NKG2A (131411), PE-CD71 (M-A712) (all: BD Biosciences), AF647-NKG2C (134591, R&D Systems), APC-HLA/E (3D12) (Biolegend). Dead cells were identified using 7-AAD, LIVE/DEAD Fixable Green or Near-IR Dead Cell Stain Kit (both: Thermo-Scientific). Flow-cytometry analysis was performed on a FACSCanto2 platform and FACSDiva Version 10.7.2 (BD).
# Figure 1 LMP-1-derived peptides are associated with the development of EBV^+ lymphomas and inhibit NKG2A^+ NK cells. (A–D) Distribution of LMP-1 variants in patients with (A) asymptomatic reactivations (N=96), (B) symptomatic reactivations (N=96), (C) EBV^+HL (N=25), (D) EBV^+nHL (N=38). Fractions represent the relative frequency of the LMP-1 peptide GGDPHLPTL, GSDPHLPTL, GGDPHLPPL, GGDPPLPTL, GCDPHLPTL, GIDPHLPTL, GAGPHLPTL, GGDTPLPTL, GDDPHLPTL, GGDPHVPTL and GTDPHLPTL variants. ^+ The frequency of the LMP-1 variants was compared to the asymptomatic cohort by the Chi^2 Test. (E, F) HLA-E stabilisation assay. (E) HLA-E stabilisation assay: Raji cells were incubated with indicated concentrations of the positive control (VMAPRTLFL) or the LMP-1 peptide-derived GGDPHLPTL, GSDPHLPTL, GGDPHLPPL, GGDPPLPTL, GCDPHLPTL, GIDPHLPTL, GAGPHLPTL, GGDTPLPTL, GDDPHLPTL, GGDPHVPTL and GTDPHLPTL variants. The HLA-E surface expression was then assessed after 16h of co-culture by flow-cytometry. Plots represent the mean ( ± SD) of three independent replicates. Each peptide was compared to the positive control using RM one-way ANOVA (with the Geisser-Greenhouse correction). (F) NKG2A^+NKG2C^- NK cell inhibition assay: Raji cells were incubated with indicated concentrations of the positive control (VMAPRTLFL) or the LMP-1 peptide-derived GGDPHLPTL, GSDPHLPTL, GGDPHLPPL, GGDPPLPTL, GCDPHLPTL, GIDPHLPTL, GAGPHLPTL, GGDTPLPTL, GDDPHLPTL, GGDPHVPTL and GTDPHLPTL variants and were then co-cultured with pre-activated NKG2A^+NKG2C^- NK cells from 12 blood donors. Plots represent the mean ( ± SD) of 12 independent replicates. Each peptide was compared to the positive control using RM one-way ANOVA (with the Geisser-Greenhouse correction). p < 0.05 was considered significant. *p < 0.05; **p < 0.01; ***p < 0.001. EBV^+HL, EBV^+ Hodgkin lymphoma, EBV^+nHL, EBV^+ non-Hodgkin lymphoma, Pos. Ctrl., positive control. TEXT PRINTED IN THE PICTURE: (E) Pos. Ctrl.: 81.4 μM | (E) GTDPHLPTL: 167.7 μM | (E) GGDPHLPTL: 162 μM | (E) GGDPPLPTL: 153.8 μM | (E) GIDPHLPTL: 313.9 μM | (E) GCDPHLPTL: 304.8 μM | (E) GDDPHLPTL: 370.3 μM | (E) GAGPHLPTL: 317.1μM | (E) GGDPHVPTL: 759 μM | (E) GSDPHLPTL: 613.9 μM | (E) GGDPHLPPL: 682 μM | (E) GGDTPLPTL: 1110 μM | (F) Pos. […] The y-axis titles are 'HLA-E upregulation' (E) and 'NKG2A+NKG2C- NK cell inhibition' (F). / Panels A–D: the percentages and counts (e.g. 44.8%, 43/96) are frequencies of peptide variants in patient cohorts, not results for a substance, and are left out.
# [2] = system: EBV-infected K562-CR2-HLA-E*0103/0103 cells; assay: Cell proliferation assay, K562-CR2-HLA-E*0103/0103; format: cell-based, human; conditions: GGDPHLPTL-pulsed (300 µM) K562-CR2-HLA-E*0103/0103 with NKG2A+NKG2C- or NKG2A+NKG2C+ NK cells, Monalizumab 10 µg/mL; Figure 2H
# Method: (§1) For the cell proliferation assays MHC-I-deficient K562-CR2, K562-CR2-HLA-E*0103/0103 or K562-CR2-HLA-E*0101/0101 target cells were established and maintained as described before ([16]). The cells were then always infected with the marmoset B-lymphoblastoid cell line B95-8 derived EBV-strain, which encodes for the GGDPHLPTL LMP-1 variant, (MOI=1) ([16]) for 3 days. Sorted NKG2C^-NKG2A^+, NKG2C^+NKG2A^- and NKG2C^+NKG2A^+ NK cells were used as effector cells and were quickly thawed at 37°C, washed, and pre-activated overnight in RPMI, 10% FCS, 1% L-glutamine, 10 ng/ml IL-12 and 100 ng/ml IL-18 at 37°C. The NK cells were then harvested by centrifugation at 400xg for 5 minutes and washed once with Opti-MEM. […] All cells were then harvested, fixed with the FIX & PERM Cell Fixation & Cell Permeabilization Kit (Thermo-Scientific) and analysed by flow-cytometry, as described below. […]
# (§2) Figure 2 HLA-E variants are associated with the development of EBV^+ lymphomas and inhibit NKG2A^+ NK cells. […] (E) Enriched NKG2A^+NKG2C^- NK cells were co-cultured with EBV-infected K562-CR2, K562-CR2-HLA-E*0103/0103 or K562-CR2-HLA-E*0101/0101 cells and were subsequently analyzed by flow-cytometry. […] Viable EBV-infected K562-CR2-HLA-E*0103/0103 or K562-CR2-HLA-E*0101/0101 cells or enriched NKG2A^+NKG2C^- NK cells was subsequently analysed by flow-cytometry. […]
# [3] = system: EBV-infected K562-CR2-HLA-E*0101/0101 cells; assay: Cell proliferation assay, K562-CR2-HLA-E*0101/0101; format: cell-based, human; conditions: GGDPHLPTL-pulsed (300 µM) K562-CR2-HLA-E*0101/0101 with NKG2A+NKG2C- or NKG2A+NKG2C+ NK cells, Monalizumab 10 µg/mL; Figure 2H
# Method: as §1, §2
Molecule,EC50 [1],EBV-infected K562-CR2 cell dissemination on blocking of NKG2A [2],EBV-infected K562-CR2 cell dissemination on blocking of NKG2A [3]
GAGPHLPTL [GAGPHLPTL],317 µM,,
GCDPHLPTL [GCDPHLPTL],305 µM,,
GDDPHLPTL [GDDPHLPTL],370 µM,,
GGDPHLPPL [GGDPHLPPL],682 µM,,
GGDPHLPTL [GGDPHLPTL],162 µM,,
GGDPHVPTL [GGDPHVPTL],759 µM,,
GGDPPLPTL [GGDPPLPTL],154 µM,,
GGDTPLPTL [GGDTPLPTL],1110 µM,,
GIDPHLPTL [GIDPHLPTL],314 µM,,
GSDPHLPTL [GSDPHLPTL],614 µM,,
GTDPHLPTL [GTDPHLPTL],168 µM,,
"Monalizumab: α-NKG2A blocking monoclonal antibody (Innate Pharma) (antibody, chains of the INN, looked up, V domains shown) VH: QVQLVQSGAEVKKPGASVKVSCKASGYTFTSYWMNWVRQAPGQGLEWMGRIDPYDSETHYAQKLQGRVTMTTDTSTSTAYMELRSLRSDDTAVYYCARGGYDFDVGTLYWFFDVWGQGTTVTVSS VL: DIQMTQSPSSLSASVGDRVTITCRASENIYSYLAWYQQKPGKAPKLLIYNAKTLAEGVPSRFSGSGSGTDFTLTISSLQPEDFATYYCQHHYGTPRTFGGGTKVEIK",,reduction,reduction
